We go through 2 compounds from patent US20220152071A1, “MARKERS OF EFFICACY OF TOPOISOMERASE POISONS” (Northwestern University, priority 2019, published 2022).

Series [1] has as its system FANCB KO SNB19 cells. The series can be described thus: Viability assay, FANCB KO cells. To be noted: 5 μM, 72 hrs. The format is cell-based, human. Here is the method: (§1) Single gene editing. To edit FANCB and RPS11, we used single guide RNAs that were enriched for both genes as well as the non-targeting controls. Briefly, these guides were synthesized by Synthego and following the protocol, we prepared the ribonucleoprotein complexes by mixing the guides (180 pmol) with recombinant Cas9 protein (Synthego) 20 pmol in […]. The complexes were allowed to form at room temp for 15 mins, and then […] of Opti-MEM I reduced serum medium and […] of lipofectamine Cas9 plus reagent were then added. Both, the cells and the formed ribonucleoprotein complexes, were seeded at the same time with 150,000 SNB19 cells in a T25 flask. The cells were incubated for 4 days.
(§2) Viability assay. […] Titre glo was added following incubation with drugs. (Cat No: G7572) and the viability of cells was analyzed 5 min later by measuring the luminescence. We normalized the intensity against DMSO treated cells of each cell line or PDX or the edited cell and then determined the survival. Pictures of these cells were also taken as shown in the source data figures.

Series [2] concerns RPS11 KO SNB19 cells. The series can be described thus: Viability assay, RPS11 KO cells. The conditions noted are these: 5 μM, 72 hrs. The format is cell-based, human. Here is the method: as §1, §2
The test system of series [3] is APAF1, RPS11 KO cells. The series can be described thus: APAF1 expression (qRT-PCR, Western blot). The format is cell-based, human. The procedure:
(§3) Western blot. […] The cells were lysed using water bath ultrasonicator for 4 mins. Cell lysate were cleared by centrifugation. We measured the concentration of protein in lysates. Denatured lysates were loaded into 4-20% Tris-glycine gels (Novex) and separated at 180V for 2 hrs. The gels were transferred unto a PVDF membrane by semi-dry blotting for 1 hr. We blocked the membrane in 5% non-fat milk TBST buffer for 30 mins and incubated with primary antibodies RPS11 (1:500), FANCB (1:500), GAPDH or ACTB (1:1500) in 5% BSA respectively over night shaking at 4° C. Primary antibodies were removed and we added the secondary polyclonal HRP (1:20,000) in TBST and incubated shaking for 2 hrs at room temp. The membrane were washed 6× in TBST and then developed with ECL (Cat No: 1705061) and band imaged on a Bio-Rad Chemi-doc imaging system. qRT-PCR. […] The total RNA was extracted using Zymo Research kit (Direct-zol RNA Miniprep Plus, Cat no: R2070). The quality of the RNA was determined by RNA pico bioanalyzer measuring the 18S and 28S ribosome. Using the superscript III first strand synthesis system (Cat no: 18080-051), we generated cDNA and performed qPCR with APAF1 and ACTB primers in triplicates and fold change of expression of APAF1 were normalized against actin B (ACTB).

Series [4] deals with APAF1, SNB19 WT and non-targeting control cells. The series can be described thus: APAF1 expression (qRT-PCR, Western blot). The format is cell-based, human. The procedure:
as §3

Series [5] deals with SNB19. In words: Click-it Plus OPP nascent protein synthesis. The format is cell-based, human. To be noted: SNB19, 5 μM, 24 hrs. Here is the method: (§4) Click-it Plus OPP Assay, Apoptosis Assay and Flow Cytometry. To determine if nascent protein synthesis is impaired upon editing of RPS11 and FANCB. We seeded edited cells SgRPS11, SgFANCB, wild type SNB19 and the non-targeting controls in a 96 well plate with black covers overnight at 4,000 cells/well. […] Following the protocol from Life technologies (Cat No: C10456), we added the Click-it OPP (1:1000), or Caspase 3/7 (Cat no: C10427) or with antibodies against BID, BCL2 or APAF1 for 30 mins. After washing cells were fixed and primary antibodies were detected secondary antibodies conjugated to Alexa Flour 488. The fluorophore intensity was measured by flow cytometry (LSR Fortessa 1 analyzer). As a complementary approach, the labelled cells were also imaged in a fluorescent microscope (Nikon Ti2 Widefield).

Series [6] concerns GBM6. In words: Click-it Plus OPP nascent protein synthesis. The conditions noted are these: GBM6, 5 μM, 24 hrs. The format is cell-based, human.
Series [7] relates to resistant glioma cell lines. In words: Viability assay, resistant glioma cell lines. The format is cell-based, human. The conditions noted are these: etoposide 5 μM, 72 hrs. The procedure:
as §2

The test system of series [8] is BID, susceptible glioma cells. In words: BID expression by flow cytometry. To be noted: susceptible glioma cells compared to resistant cells, 24 hrs. The format is cell-based, human. The procedure: as §4
(In general: Flow cytometry measures light scatter and fluorescence of single cells or particles in a stream.)

Series [9] concerns SNB19. The series can be described thus: Viability assay (Titre glo), susceptible glioma cell line. The format is cell-based, human. To be noted: etoposide 5 μM, 72 hrs. Here is the method:
as §2

The conditions of series [10]: gliomas and brain metastases, systemic administration, human; cited from earlier work.
Series [11] relates to BCL2, GBM12. In words: BCL2 expression by flow cytometry. The format is cell-based, human. The conditions noted are these: GBM12, 24 hrs. Here is the method:
as §4

The subject of series [12] is BCL2, GBM6. The series can be described thus: BCL2 expression by flow cytometry. The format is cell-based, human. The conditions noted are these: GBM6, 24 hrs.
In series [13] the test system is GBM12. In words: Click-it Plus OPP nascent protein synthesis. The format is cell-based, human. The conditions noted are these: GBM12, 5 μM, 24 hrs.
In series [14] the test system is SNB19 cells. In words: Genome-wide CRISPR KO screen, etoposide selection. The format is cell-based, human. The conditions noted are these: etoposide 5 μM, 14 days, CRISPR KO library SNB19 cells.
Description: Large scale cell culture and expansion. To perform the CRISPR screening, SNB19 cells were expanded to 500 million and then spinfected with 70,000sgRNA. After spinfection, the cells are selected with 0.6 μg/ml of puromycin for 4 days. This selection is aimed at the cells that have been rightly integrated with the sgRNA that incorporates the puromycin cassette into their genome. […] We used 50 million of selected cells for the extraction of genomic DNA. The base sgRNA representation is obtained by amplification of the sgRNA with unique barcoded primers. The remaining 100 million cells were expanded for 2 days, once cells grew to 200 million. […] After 14 days, the cells were harvested, the gDNA extracted, and the sgRNA amplified with another unique barcoded primer.
In series [15] the test system is GBM12. In words: Etoposide dose-response viability. The format is cell-based, human. To be noted: GBM12, dose-response in vitro 72 hrs. The procedure: as §2
In series [16] the test system is GBM6. The series can be described thus: Etoposide dose-response viability. The format is cell-based, human. To be noted: GBM6, dose-response in vitro 72 hrs. Here is the method: as §2
Series [17] has as its system U251. The series can be described thus: Etoposide dose-response viability. To be noted: U251, dose-response in vitro 72 hrs. The format is cell-based, human. The procedure:
as §2

Series [18] deals with MES83. In words: Etoposide dose-response viability. The format is cell-based, human. The conditions noted are these: MES83, dose-response in vitro 72 hrs. Here is the method: as §2
The subject of series [19] is GBM43. In words: Etoposide dose-response viability. The format is cell-based, human. To be noted: GBM43, dose-response in vitro 72 hrs. The procedure: as §2
In series [20] the test system is U251. The series can be described thus: Click-it Plus OPP nascent protein synthesis. To be noted: U251, 5 μM, 24 hrs. The format is cell-based, human.

With `COc1cccc2c1C(=O)c1c(O)c3c(c(O)c1C2=O)C[C@@](O)(C(=O)CO)C[C@@H]3O[C@H]1C[C@H](N)[C@H](O)[C@H](C)O1` [doxorubicin], the “susceptibility (viability)” value in series [1] was “acquired resistance”; in series [2], “resistant”.
As for `COc1cc([C@@H]2c3cc4c(cc3[C@@H](O[C@@H]3O[C@@H]5CO[C@@H](C)O[C@H]5[C@H](O)[C@H]3O)[C@H]3COC(=O)[C@H]23)OCO4)cc(OC)c1O` [etoposide], the “APAF1 protein following etoposide treatment” value in series [3] is given as “decrease”. For the same compound, the “APAF1 transcript following etoposide treatment” value in series [3] (24 hrs) is reported as “no significant expression changes”; in series [4] (SNB19 WT and non-targeting control cells, 24 hrs), “significant induction”. Further, the “APAF1 protein levels following etoposide treatment” value in series [4] (SNB19 wild-type and non-targeting control cells) is reported as “increased”. Besides, the “nascent proteins following etoposide treatment” value is reported as “decrease in nascent proteins” in [5], “no decrease in nascent proteins” in [6], “no decrease in nascent proteins” in [13] and “decrease in nascent proteins” in series [20]. Further, the cell death entry in [7] was “minimal cell death”. In addition, the “BID expression following etoposide treatment” value in series [8] was “increased BID expression”. The compound further had a cells death in series [9] of 80%. The “intratumoral concentration in tumor tissue” value in series [10] is 2 to 6 µM. The “BCL2 expression following etoposide treatment” value in series [11] and in series [12] was “increase” each time. The figures for the “susceptibility (viability)” value in series [1] and in series [2] were “acquired resistance” and “resistant”, respectively. In addition, the cells surviving treatment entry in [14] is reported as “less than 1%”. Further, the susceptibility to etoposide result is listed as “resistance” in [15]; “resistance” in [16]; “susceptible” in [17]; “susceptible” in series [18]; “less sensitive” in [19].
